Assay results from PMC11251039, “Harnessing cholesterol uptake of malaria parasites for therapeutic applications” (EMBO Molecular Medicine, 2024).
Where “and” joins values, the source holds several entries; their conditions need not be identical. Identical values can stand only once. Like-named read-outs stand apart in the source and are kept apart here.

Tests used:
[1] = test system: asexual P. falciparum 3D7 wild-type parasites; assay: P. falciparum asexual growth inhibition assay (SYBR Safe DNA replication); format: cell-based, Plasmodium falciparum; conditions: for P. falciparum asexual growth, percentage of control: replicate values, source data Fig. 2B, listed as BC5B; for IC90 / IC50: Plasmodium falciparum; for IC50: read-out: IC50, P. falciparum asexual growth inhibition
How it was run: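 Sorbitol-synchronised ring-stage cultures at 1% parasitaemia and 1% haematocrit were exposed to 2-fold compound dilutions at 37 °C under microaerophilic conditions for 24, 48 or 72 h. Growth was read by SYBR Safe fluorescence of freeze-thaw lysates, with 200 nM chloroquine or artesunate defining background.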

[2] = test system: Toxoplasma gondii tachyzoites (RH strain); assay: Toxoplasma growth inhibition assay (tdTomato fluorescence, in HFF cells); format: cell-based; conditions: 72 h
Experimental: Fluorescence was measured daily with a fluorescence microplate reader for one week, and the background fluorescence from the time 0 reading was subtracted from all other measurements. […]
Toxoplasma Growth Inhibition Assays:
Growth inhibition was investigated as described previously (26). Fluorescent Toxoplasma gondii parasites were inoculated into an optical bottom 96-well plate containing confluent human foreskin fibroblast (HFF) host cells at a density of 2,000 parasites/well, with a serial dilution of each compound, or culture media/DMSO (0.1% v/v) alone. Plates were measured daily with a FluoStar Optima fluorescence plate reader at 540 nm excitation and 590 nm emission for one week, and the background fluorescence from the time 0 reading was subtracted from all other measurements. […]

[3] = test system: human embryonic kidney cells (HEK293); assay: Human embryonic kidney cell viability assay (MTT); format: cell-based; conditions: Homo sapiens; 96 h, HEK293; read-out: IC50, human embryonic kidney cell inhibition (viability)
Experimental: HEK293 cell viability assays commenced with 5000 cells per well. 10 µg/mL cycloheximide was used as a no-growth control. Metabolic capacity (indicating viability) was measured in an absorbance microplate reader after incubation with 0.45 mg/mL methylthiazolyldiphenyl-tetrazolium bromide (MTT; Sigma M2128) for 2 h followed by crystal solubilisation in SDS. […]
Human Embryonic Kidney Cell Viability Assays:
Human Embryonic Kidney Cell (HEK293) culture:
The HEK293 cell line was maintained under routine culture conditions in DMEM containing 3.7 g/L NaHCO3 supplemented with 10% FBS, 200 μM glutamine, 100 units/mL penicillin, and 100 μg/mL streptomycin at 37 °C in a humidified 5% CO2 incubator.
Cells were detached from a flask using 0.25% Trypsin with 0.2 g/L EDTA (Sigma T4049) and washed with culture media containing no phenol red. Cells were incubated with a serial dilution of each compound, or media/DMSO alone. The protein synthesis inhibitor cycloheximide (Sigma 01810) at 10 µg/mL was used as a positive control to determine background absorbance. 5,000 cells were seeded in each well. After 96 hours, 0.45 mg/mL methylthiazolyldiphenyl-tetrazolium bromide (MTT; Sigma M2128) was added and incubated for a further two hours, before mixing 1.1:1 with 10% w/v sodium dodecyl sulfate (SDS) to solubilise crystals and freezing the plate at -18 °C to stop the assay. […]

P. berghei liver stages = assay: Plasmodium berghei liver stage growth inhibition assay (luminescence, in Huh7 cells); conditions: for P. berghei liver stage growth, dose-response data points (Figure 3A): replicate data points; for P. berghei liver stage growth, dose-response data points (Figure 3A) / Figure 3E dose-response value (replicates): listed as BC5B
Experimental: Growth inhibition or cell viability were assessed by incubation with a serial dilution of test compounds, solvent controls (DMSO, ethanol, ethyl acetate), or culture media alone in 96-well plates, with detection of fluorescence, luminescence, or absorbance in microplate readers after 24–96 h unless otherwise specified.
Huh7 cells were seeded at a density of 10,000 cells per well of a 96-well plate, or 20,000 cells per collagen-coated coverslip. After 24 h, test compounds were added the wells were inoculated with P. berghei liver stage sporozoites dissected from infected A. stephensi salivary glands with 5000–10,000 sporozoites per well or 10,000–20,000 sporozoites per coverslip. Uninfected wells served as a control for background luminescence. Luminescence signal was measured 48 h post-invasion by addition of 1:1 ONE-Glo^TM substrate (Promega) with a luminescence microplate reader. Coverslips were fixed, stained, and imaged, with all parasites on each coverslip imaged and delineated as described (Petersen et al, [2017]) using Fiji ImageJ (Schindelin et al, [2012]). Data are presented as a percentage of the size or parasite number of the solvent control to normalize for differences between experiments.
Growth inhibition data were normalised by subtracting background fluorescence, luminescence, absorbance, or percentage of cells from a no-growth or no-viability control (high drug concentration, no-parasite control, or time = 0 measurement as specified), and expressed as a percentage of the growth or cell percentage in the negative control (culture media alone or solvent control) at the indicated timepoint (or to the highest measurement reached during the assay for Fig. EV3).
Plasmodium berghei ANKA Bergreen (22) or GFP-Luc (RMgm-29) (23), respectively
expressing green fluorescent protein (GFP) or a GFP-Luciferase fusion protein, were
maintained under routine conditions in SWR/J Mus musculus mice and Anopheles stephensi
Growth inhibition of P. berghei liver-stages was investigated after infection of human
hepatoma cells (Huh7) and subsequent growth for 48 hours at 37° C, 5% CO2 and 80%
humidity. The day prior to infection, 10,000 Huh7 cells were seeded in dark-sided 96-well
microplates (Greiner Bio One). On the day of infection, compounds or solvent controls
(DMSO) were serially diluted in culture media and 5,000 – 10,000 Bergreen or GFP-Luc
sporozoites were added per well following dissection from infected A. stephensi salivary
glands. Uninfected wells served as control for background luminescence. To promote invasion,
the plates were centrifuged at 1,550 g for 5 minutes. After 60 minutes, the media was
completely replaced with fresh, prewarmed media with the matching drug concentrations.
Media was partially replaced with new drug dilutions over the following two days. 48 hours
post-infection, luminescence signal was measured by addition of 1:1 ONE-GloTM substrate
(Promega) to the wells, followed by detection at 300 – 700 nm using a Synergy HTX plate

COc1cc(NC(C)CCCNC(=O)CCC(=O)O[C@H]2CC[C@H]3[C@@H]4CC=C5C[C@@H](O)CC[C@]5(C)[C@H]4CC[C@]23C)c2ncccc2c1 (stereo partly shown) [C-17-PQ]
Fold lower IC50 than primaquine alone [1]: ~ 4 fold
P. falciparum asexual growth, percentage of control ([1]; 0.154296880 uM, 24 h): 115.9% and 112.2% and 101.3% and 107.1% and 95.84% and 88.53% and 98.99% and 116.6% and 76.11%
P. falciparum asexual growth, percentage of control ([1]; 0.308593750 uM, 24 h): 125.5% and 115.5% and 91.68% and 117.9% and 88.81% and 84.79% and 114.9% and 109.1% and 95.02%
P. falciparum asexual growth, percentage of control ([1]; 0.617187500 uM, 24 h): 131.7% and 113.6% and 103% and 85.01% and 97.93% and 83.36% and 109% and 162.3% and 97.26%
P. falciparum asexual growth, percentage of control ([1]; 1.234375000 uM, 24 h): 120.1% and 114.6% and 99.7% and 107.3% and 77.37% and 93.38% and 101.7% and 96.22% and 102.4%
P. falciparum asexual growth, percentage of control ([1]; 2.468750000 uM, 24 h): 89.52% and 83.68% and 69.39% and 87.34% and 56.13% and 47.54% and 76.36% and 68.29% and 79.29%
P. falciparum asexual growth, percentage of control ([1]; 4.937500000 uM, 24 h): 14.72% and 24.05% and 6.418% and 5.536% and -2.79% and -3.361% and 18.05% and 30.2% and 18.39%
P. falciparum asexual growth, percentage of control ([1]; 9.875000000 uM, 24 h): 13.15% and 2.413% and -18.71% and -3.317% and -20.54% and -27.66% and -1.156% and -7.164% and -20.57%
P. falciparum asexual growth, percentage of control ([1]; 19.750000000 uM, 24 h): -9.926% and -19.32% and -11.56% and 3.097% and -3.493% and -18.72% and 17.43% and -16.64% and -32.93%
Fold difference in IC90 to primaquine ([1]; 24 h): ~ 8 fold
Hill slope of inhibitory curve ([1]; 24 h): −4.56
Hill slope of inhibitory curve ([1]; 72 h): −4.20
IC90 ([1]; 3D7, 24 h): 5000 nM
IC50 ([1]; 3D7, 24 h, 24 h, starting at ring stages): 3100 nM
IC50 ([1]; 3D7, 48 h, 48 h): 3000 nM
IC90 ([1]; 3D7, 72 h): 4000 nM
IC50 ([1]; 3D7, 72 h, 72 h): 2400 nM
Fold difference in IC50 to primaquine ([2]; listed as steroid-primaquine conjugate): ~ 3.5 fold and 3 fold
IC50 ([2]; Toxoplasma gondii, HFF, read-out: IC50, T. gondii tachyzoite growth inhibition): 2800 nM
IC50 [3]: > 50000 nM
P. berghei liver stage growth, dose-response data points (Figure 3A) (P. berghei liver stages; 0.015241580 uM): 99.66 and 97.59 and 102.8 and 91.81 and 95.85 and 112.3 and 109.1 and 88.24 and 102.7
P. berghei liver stage growth, dose-response data points (Figure 3A) (P. berghei liver stages; 0.045724740 uM): 109 and 90.36 and 103.8 and 84.25 and 83.27 and 86.47 and 94.66 and 88.64 and 73.11
P. berghei liver stage growth, dose-response data points (Figure 3A) (P. berghei liver stages; 0.137174210 uM): 94.49 and 73.84 and 68.67 and 79.23 and 76.1 and 53.42 and 81.73 and 93.15 and 81.23
Figure 3E dose-response value (replicates) (P. berghei liver stages; 0.145312500 uM): 100.6 and 88.31 and 76.37 and 94.25
Figure 3E dose-response value (replicates) (P. berghei liver stages; 0.290625000 uM): 94.35 and 94.79 and 85.61 and 89.45 and 87.37 and 88.47 and 84.93 and 94.4 and 94.85 and 93.84 and 89.47 and 91.21
P. berghei liver stage growth, dose-response data points (Figure 3A) (P. berghei liver stages; 0.411522630 uM): 13.94 and 18.07 and 25.3 and 9.363 and 14.77 and 12.23 and 25.32 and 28.82 and 21.11
Figure 3E dose-response value (replicates) (P. berghei liver stages; 0.581250000 uM): 102.2 and 80.25 and 95.76 and 90.1 and 83.44 and 75.35 and 88.55 and 97.11 and 92.72 and 86.07 and 93.7 and 93.03
Figure 3E dose-response value (replicates) (P. berghei liver stages; 1.162500000 uM): 80.19 and 74.87 and 75.85 and 88.24 and 81.26 and 89.14 and 75.39 and 78.14 and 86.59 and 91.1 and 86.79 and 86.51
P. berghei liver stage growth, dose-response data points (Figure 3A) (P. berghei liver stages; 1.234567900 uM): 1.549 (2×) and -1.549 and 0.4997 and 0.5648 and 2.455 and 1.57 and 4.175 and 3.674
Figure 3E dose-response value (replicates) (P. berghei liver stages; 2.325000000 uM): 53.31 and 45.1 and 53.66 and 84.74 and 82.81 and 85.04 and 49.27 and 57.96 and 49.51 and 76.01 and 76.49 and 71.94
P. berghei liver stage growth, dose-response data points (Figure 3A) (P. berghei liver stages; 3.703703700 uM): -1.549 and -0.5164 and -3.614 and 0.04345 and -0.02173 and 0.1086 and 0.3674 and 0.5678 and 1.47
Figure 3E dose-response value (replicates) (P. berghei liver stages; 4.650000000 uM): 7.681 and 6.67 and 6.188 and 47.84 and 67.52 and 65.25 and 8.114 and 8.015 and 9.768 and 28.34 and 27.7 and 22
Figure 3E dose-response value (replicates) (P. berghei liver stages; 9.300000000 uM): 1.871 and 0.7826 and 2.182 and 4.713 and 13.07 and 10.27 and 2.653 and 3.064 and 2.474 and 6.135 and 6.853 and 6.628
P. berghei liver stage growth, dose-response data points (Figure 3A) (P. berghei liver stages; 11.111111100 uM): -2.582 (2×) and -3.614 and -0.0869 and 0.1086 and 0.4997 and 0.5678 and 0.4676 and 0.7682
Figure 3E dose-response value (replicates) (P. berghei liver stages; 18.600000000 uM): 1.555 and 0.8085 and 1.399 and 1.289 and 0.3453 and 0.9092 and 0.9717 and 1.016 and 1.705 and 1.904 and 2.379 and 2.285
P. berghei liver stage growth, dose-response data points (Figure 3A) (P. berghei liver stages; 33.333333300 uM): -2.582 and -1.549 and -0.5164 and -0.02173 and 0.3041 (2×) and 0.3674 (2×) and 0.9686
Figure 3E dose-response value (replicates) (P. berghei liver stages; 37.200000000 uM): 2.576 and 1.923 and 1.736 and -0.9169 and -0.5313 and 0.3203 and 0.31 and 1.213 and 0.6856 and 1.324 and 1.043 and 1.236
P. berghei liver stage growth, dose-response data points (Figure 3A) (P. berghei liver stages; 100.000000000 uM): 0.5164 and -1.549 and 1.549 and 0.04345 and 0.4997 and 0.1086 and 0.5678 (2×) and 0.668
Fold reduction in IC50 compared to primaquine alone (P. berghei liver stages; 48 h): ~ 15 fold
IC50 (P. berghei liver stages; Plasmodium berghei, Huh-7, 48 h, read-out: IC50, P. berghei liver stage growth inhibition): 200 nM
